From the supplement of paper PMC10627819

Tests used:
[1] = test system: S. pneumoniae D39V; experiment: fitness (endpoint OD595 vs no drug) (fraction); higher = more growth
How it was run: (§1)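 With the first reading as background, OD595 was measured every 30 min for 14 h in 384-well plates kept at 37 °C and inoculated at OD595 0.01. TSB, LB Lennox or CY was the medium. Fitness is the optical density at the transition into stationary phase divided by the robust mean of no-drug control wells, with a cap of 1.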

[2] = test system: B. subtilis 168; experiment: as above
How it was run: as §1

[3] = test system: S. aureus Newman; experiment: as above
How it was run: as §1

[4] = test system: S. aureus DSM 20231; experiment: as above
How it was run: as §1

[5] = test system: S. pneumoniae D39V; experiment: Bliss interaction score (quartile over a dose matrix) (fitness difference); higher = more antagonism (negative = synergy)
How it was run: (§2)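 Growth in each well was taken as OD595 at entry into stationary phase. Dividing by the plate's robust no-drug mean and capping at 1 gave fitness, and single-drug fitness was inferred from the combination data. The Bliss score, observed minus product-expected fitness, is summarised by quartiles over technical, biological and donor/recipient replicates.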

[6] = test system: B. subtilis 168; experiment: as above
How it was run: as §2

[7] = test system: S. aureus Newman; experiment: as above
How it was run: as §2

[8] = test system: S. aureus DSM 20231; experiment: as above
How it was run: as §2
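Wherever Bliss interaction score (quartile over a dose matrix) is given: first quartile when negative (synergy) and third quartile when positive (antagonism).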

CO/N=C(\C(=O)N[C@@H]1C(=O)N2C(C(=O)O)=C(COC(C)=O)CS[C@H]12)c1csc(N)n1 [Cefotaxime] + CC1=C\[C@@H](O)CC(=O)Cc2nc(co2)C(=O)N2CCC=C2C(=O)O[C@H](C(C)C)[C@H](C)/C=C/C(=O)NC\C=C\1 [Virginiamycin M1]
one replicate
Settings | fitness
[1], first compound 0.0018 µg/mL, partner 0.15 µg/mL | ≥ 1
[1], first compound 0.0018 µg/mL, partner 0.3 µg/mL | 0.976
[1], first compound 0.0035 µg/mL, partner 0.15 µg/mL | ≥ 1
[1], first compound 0.0035 µg/mL, partner 0.3 µg/mL | ≥ 1
[1], first compound 0.007 µg/mL, partner 0.15 µg/mL | ≥ 1
[1], first compound 0.007 µg/mL, partner 0.3 µg/mL | 0.952
[2], first compound 0.00775 µg/mL, partner 0.0625 µg/mL | 0.854
[2], first compound 0.00775 µg/mL, partner 0.125 µg/mL | 0.833
[2], first compound 0.00775 µg/mL, partner 0.25 µg/mL | 0.833
[2], first compound 0.0155 µg/mL, partner 0.0625 µg/mL | 0.695
[2], first compound 0.0155 µg/mL, partner 0.125 µg/mL | 0.683
[2], first compound 0.0155 µg/mL, partner 0.25 µg/mL | 0.673
[2], first compound 0.031 µg/mL, partner 0.0625 µg/mL | 0.554
[2], first compound 0.031 µg/mL, partner 0.125 µg/mL | 0.557
[2], first compound 0.031 µg/mL, partner 0.25 µg/mL | 0.583
[3], first compound 0.039 µg/mL, partner 0.5 µg/mL | 0.71
[3], first compound 0.039 µg/mL, partner 1 µg/mL | 0.72
[3], first compound 0.039 µg/mL, partner 2 µg/mL | 0.732
[3], first compound 0.078 µg/mL, partner 0.0625 µg/mL | 0.699
[3], first compound 0.078 µg/mL, partner 0.125 µg/mL | 0.716
[3], first compound 0.078 µg/mL, partner 0.25 µg/mL | 0.734
[3], first compound 0.078 µg/mL, partner 0.5 µg/mL | 0.672
[3], first compound 0.078 µg/mL, partner 1 µg/mL | 0.687
[3], first compound 0.078 µg/mL, partner 2 µg/mL | 0.57
[3], first compound 0.156 µg/mL, partner 0.0625 µg/mL | 0.494
[3], first compound 0.156 µg/mL, partner 0.125 µg/mL | 0.468
[3], first compound 0.156 µg/mL, partner 0.25 µg/mL | 0.509
[3], first compound 0.156 µg/mL, partner 0.5 µg/mL | 0.648
[3], first compound 0.156 µg/mL, partner 1 µg/mL | 0.613
[3], first compound 0.156 µg/mL, partner 2 µg/mL | 0.444
[3], first compound 0.312 µg/mL, partner 0.0625 µg/mL | 0.305
[3], first compound 0.312 µg/mL, partner 0.125 µg/mL | 0.326
[3], first compound 0.312 µg/mL, partner 0.25 µg/mL | 0.307
[3], first compound 0.312 µg/mL, partner 0.5 µg/mL | 0.57
[3], first compound 0.312 µg/mL, partner 1 µg/mL | 0.54
[3], first compound 0.312 µg/mL, partner 2 µg/mL | 0.344
[3], first compound 0.625 µg/mL, partner 0.0625 µg/mL | 0.0023
[3], first compound 0.625 µg/mL, partner 0.125 µg/mL | 0.0438
[3], first compound 0.625 µg/mL, partner 0.25 µg/mL | 0.039
[3], first compound 1.25 µg/mL, partner 0.0625 µg/mL | 0.0272
[3], first compound 1.25 µg/mL, partner 0.125 µg/mL | 0.0702
[3], first compound 1.25 µg/mL, partner 0.25 µg/mL | 0.0726
[3], first compound 2.5 µg/mL, partner 0.0625 µg/mL | 0.0428
[3], first compound 2.5 µg/mL, partner 0.125 µg/mL | 0.0329
[3], first compound 2.5 µg/mL, partner 0.25 µg/mL | 0.0641
[4], first compound 0.039 µg/mL, partner 0.0625 µg/mL | 0.775
[4], first compound 0.039 µg/mL, partner 0.125 µg/mL | 0.779
[4], first compound 0.039 µg/mL, partner 0.25 µg/mL | 0.762
[4], first compound 0.078 µg/mL, partner 0.5 µg/mL | 0.778
[4], first compound 0.078 µg/mL, partner 1 µg/mL | 0.799
[4], first compound 0.156 µg/mL, partner 0.5 µg/mL | 0.742
[4], first compound 0.156 µg/mL, partner 1 µg/mL | 0.699
[4], first compound 0.312 µg/mL, partner 0.5 µg/mL | 0.61
[4], first compound 0.312 µg/mL, partner 1 µg/mL | 0.706

fitness
Settings | partner 0.0625 µg/mL | partner 0.125 µg/mL | partner 0.25 µg/mL | partner 0.5 µg/mL | partner 1 µg/mL | partner 2 µg/mL
[1], first compound 0.0018 µg/mL | – | – | – | 0.991 | 1 | 0.947
[1], first compound 0.0035 µg/mL | – | – | – | 0.975 | 0.95 | 0.966
[1], first compound 0.007 µg/mL | – | – | – | 0.916 | 0.957 | 0.917
[2], first compound 0.5 µg/mL | 0.23 | 0.246 | 0.239 | – | – | –
[2], first compound 1 µg/mL | 0.085 | 0.0947 | 0.119 | – | – | –
[2], first compound 2 µg/mL | 0.0507 | 0.082 | 0.0814 | – | – | –
[4], first compound 0.078 µg/mL | 0.678 | 0.784 | 0.776 | – | – | –
[4], first compound 0.156 µg/mL | 0.711 | 0.83 | 0.741 | – | – | –
[4], first compound 0.312 µg/mL | 0.683 | 0.694 | 0.676 | – | – | –

Settings | Bliss interaction score
[5] | -0.0315
[6] | 0.0729
[7] | -0.0479
[8] | 0.0452

CO/N=C(\C(=O)N[C@@H]1C(=O)N2C(C(=O)O)=C(COC(C)=O)CS[C@H]12)c1csc(N)n1 [Cefotaxime] + CC(C1CCC(C(O1)OC2C(CC(C(C2O)OC3C(C(C(CO3)(C)O)NC)O)N)N)N)NC [Gentamicin]
main component drawn
Settings | fitness
[1], first compound 0.0018 µg/mL, partner 2 µg/mL | 0.999
[1], first compound 0.0018 µg/mL, partner 4 µg/mL | 0.988
[1], first compound 0.0018 µg/mL, partner 8 µg/mL | 0.971
[1], first compound 0.0035 µg/mL, partner 2 µg/mL | 0.967
[1], first compound 0.0035 µg/mL, partner 4 µg/mL | 0.956
[1], first compound 0.0035 µg/mL, partner 8 µg/mL | 0.917
[1], first compound 0.007 µg/mL, partner 2 µg/mL | 0.895
[1], first compound 0.007 µg/mL, partner 4 µg/mL | 0.896
[1], first compound 0.007 µg/mL, partner 8 µg/mL | 0.867
[2], first compound 0.5 µg/mL, partner 0.0625 µg/mL | 0.155
[2], first compound 0.5 µg/mL, partner 0.125 µg/mL | 0.055
[2], first compound 0.5 µg/mL, partner 0.25 µg/mL | 0.0842
[2], first compound 1 µg/mL, partner 0.0625 µg/mL | 0.0509
[2], first compound 1 µg/mL, partner 0.125 µg/mL | 0.04
[2], first compound 1 µg/mL, partner 0.25 µg/mL | 0.0527
[2], first compound 2 µg/mL, partner 0.0625 µg/mL | 0.0909
[2], first compound 2 µg/mL, partner 0.125 µg/mL | 0.0759
[2], first compound 2 µg/mL, partner 0.25 µg/mL | 0.0872
[3], first compound 0.625 µg/mL, partner 0.5 µg/mL | 0.389
[3], first compound 0.625 µg/mL, partner 1 µg/mL | 0.44
[3], first compound 0.625 µg/mL, partner 2 µg/mL | 0.397
[3], first compound 1.25 µg/mL, partner 0.5 µg/mL | 0.0594
[3], first compound 1.25 µg/mL, partner 1 µg/mL | 0.0679
[3], first compound 1.25 µg/mL, partner 2 µg/mL | 0.0372
[3], first compound 2.5 µg/mL, partner 0.5 µg/mL | 0.0199
[3], first compound 2.5 µg/mL, partner 1 µg/mL | 0.0366
[3], first compound 2.5 µg/mL, partner 2 µg/mL | 0.0507

one replicate, main component drawn
Settings | fitness
[2], first compound 0.00775 µg/mL, partner 0.0625 µg/mL | 0.66
[2], first compound 0.00775 µg/mL, partner 0.125 µg/mL | 0.0541
[2], first compound 0.00775 µg/mL, partner 0.25 µg/mL | 0.0723
[2], first compound 0.0155 µg/mL, partner 0.0625 µg/mL | 0.16
[2], first compound 0.0155 µg/mL, partner 0.125 µg/mL | 0.0431
[2], first compound 0.0155 µg/mL, partner 0.25 µg/mL | 0.0419
[2], first compound 0.031 µg/mL, partner 0.0625 µg/mL | 0.0439
[2], first compound 0.031 µg/mL, partner 0.125 µg/mL | 0.0439
[2], first compound 0.031 µg/mL, partner 0.25 µg/mL | 0.0452
[2], first compound 0.0625 µg/mL, partner 0.0625 µg/mL | 0.754
[2], first compound 0.0625 µg/mL, partner 0.125 µg/mL | 0.701
[2], first compound 0.0625 µg/mL, partner 0.25 µg/mL | 0.155
[2], first compound 0.125 µg/mL, partner 0.0625 µg/mL | 0.65
[2], first compound 0.125 µg/mL, partner 0.125 µg/mL | 0.449
[2], first compound 0.125 µg/mL, partner 0.25 µg/mL | 0.103
[2], first compound 0.25 µg/mL, partner 0.0625 µg/mL | 0.581
[2], first compound 0.25 µg/mL, partner 0.125 µg/mL | 0.22
[2], first compound 0.25 µg/mL, partner 0.25 µg/mL | 0.129
[3], first compound 0.039 µg/mL, partner 0.5 µg/mL | 0.79
[3], first compound 0.039 µg/mL, partner 1 µg/mL | 0.857
[3], first compound 0.039 µg/mL, partner 2 µg/mL | 0.951
[3], first compound 0.078 µg/mL, partner 0.375 µg/mL | 0.757
[3], first compound 0.078 µg/mL, partner 0.5 µg/mL | 0.821
[3], first compound 0.078 µg/mL, partner 0.75 µg/mL | 0.772
[3], first compound 0.078 µg/mL, partner 1 µg/mL | 0.8
[3], first compound 0.078 µg/mL, partner 1.5 µg/mL | 0.759
[3], first compound 0.078 µg/mL, partner 2 µg/mL | 0.977
[3], first compound 0.156 µg/mL, partner 0.375 µg/mL | 0.52
[3], first compound 0.156 µg/mL, partner 0.5 µg/mL | 0.744
[3], first compound 0.156 µg/mL, partner 0.75 µg/mL | 0.533
[3], first compound 0.156 µg/mL, partner 1 µg/mL | 0.763
[3], first compound 0.156 µg/mL, partner 1.5 µg/mL | 0.595
[3], first compound 0.156 µg/mL, partner 2 µg/mL | 0.872
[3], first compound 0.312 µg/mL, partner 0.375 µg/mL | 0.345
[3], first compound 0.312 µg/mL, partner 0.75 µg/mL | 0.389
[3], first compound 0.312 µg/mL, partner 1.5 µg/mL | 0.399
[3], first compound 0.625 µg/mL, partner 0.375 µg/mL | 0.0576
[3], first compound 0.625 µg/mL, partner 0.75 µg/mL | 0.0523
[3], first compound 0.625 µg/mL, partner 1.5 µg/mL | 0.0345
[3], first compound 1.25 µg/mL, partner 0.375 µg/mL | 0.0504
[3], first compound 1.25 µg/mL, partner 0.75 µg/mL | 0.0617
[3], first compound 1.25 µg/mL, partner 1.5 µg/mL | 0.0569
[3], first compound 2.5 µg/mL, partner 0.375 µg/mL | 0.0422
[3], first compound 2.5 µg/mL, partner 0.75 µg/mL | 0.074
[3], first compound 2.5 µg/mL, partner 1.5 µg/mL | 0.0764

main component drawn
Settings | Bliss interaction score
[5] | 0.0656
[6] | -0.0898
[7] | 0.0788
[8] | 0.0541
